Measurements: PMC4265155, “A highly charged region in the middle domain of plant endoplasmic reticulum (ER)-localized heat-shock protein 90 is required for resistance to tunicamycin or high calcium-induced ER stresses” (Journal of Experimental Botany, 2014)

Target: T1, CfGRP94 (canine GRP94 73–754Δ41) (Canis lupus, UniProt P41148, DEL287-327, form not given)
T1 construct: gene HSP90B1
Settings: geldanamycin-sensitive activity; 25 mM HEPES pH 7.5, 5 mM MgCl2, 400 mM KCl, 0.03% Tween 20, 10% glycerol
Excerpt: NADH-coupled ATPase assay (pyruvate kinase / lactate dehydrogenase) on CfGRP94 (canine GRP94 73–754Δ41)

T1 sequence (P41148 73-286, stated change not applied): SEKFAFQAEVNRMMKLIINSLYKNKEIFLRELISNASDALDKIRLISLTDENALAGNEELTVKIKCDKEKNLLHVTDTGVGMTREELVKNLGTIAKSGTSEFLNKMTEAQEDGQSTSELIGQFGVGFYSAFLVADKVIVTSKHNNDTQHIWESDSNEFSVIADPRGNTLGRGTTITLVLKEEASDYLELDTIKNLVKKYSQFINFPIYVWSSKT
T1 sequence (P41148 328-754, stated change not applied): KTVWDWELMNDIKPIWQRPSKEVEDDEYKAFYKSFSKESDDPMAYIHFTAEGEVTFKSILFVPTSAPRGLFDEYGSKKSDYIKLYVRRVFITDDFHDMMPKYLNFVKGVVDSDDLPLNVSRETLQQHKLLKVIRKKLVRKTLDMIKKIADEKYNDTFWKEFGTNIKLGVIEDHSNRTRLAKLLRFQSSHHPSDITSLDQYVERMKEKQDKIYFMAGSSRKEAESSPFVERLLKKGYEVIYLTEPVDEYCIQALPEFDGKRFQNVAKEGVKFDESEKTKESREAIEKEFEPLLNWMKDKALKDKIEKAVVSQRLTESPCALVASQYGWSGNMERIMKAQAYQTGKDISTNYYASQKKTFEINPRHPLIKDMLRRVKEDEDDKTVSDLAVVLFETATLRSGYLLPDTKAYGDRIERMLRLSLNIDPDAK

Km: 65 ± 13 µM
Compound: Nc1ncnc2c1ncn2[C@@H]1O[C@H](COP(=O)(O)OP(=O)(O)OP(=O)(O)O)[C@@H](O)[C@H]1O [ATP]
